Results on nine compounds are retold here after ChEMBL document CHEMBL1133301, “Beta-keto-ester chemistry and ketolides. Synthesis and antibacterial activity of 2-halogeno, 2-methyl and 2,3 enol-ether ketolides” (2000).

Values after ≈ are worked out from the molar mass of the structure shown.

By ED50 is commonly meant the dose that gives a 50% effect, or the effect in half of the subjects. Read a low ED50 as greater potency.

Common to all, as to type: functional
Assay [1] relates to Streptococcus pneumoniae. In words: The compound has been evaluated for the antibacterial activity against Streptococcus pneumoniae EryRc 030SJ1 strains.
The test system of assay [2] is Staphylococcus aureus. The experiment in a line: The compound has been evaluated for the antibacterial activity against Staphylococcus aureus EryRc 011CB20 strains.
For assay [3], the system named is Streptococcus pneumoniae. In words: The compound has been evaluated for the antibacterial activity against Streptococcus pneumoniae EryS 032UC1 strains.
For a further assay, the system named is Streptococcus pyogenes. In words: The compound has been evaluated for the antibacterial activity against Streptococcus pyogenes EryS 02A1UC1.
For assay [4], the system named is Staphylococcus aureus. The experiment in a line: The compound has been evaluated for the antibacterial activity against Staphylococcus aureus EryS 011UC4 strains.
Assay [5] deals with Streptococcus pneumoniae. The experiment in a line: The compound has been evaluated for the antibacterial activity against Streptococcus pneumoniae Ery Ri 030SJ 5i strains.
Assay [6] deals with Streptococcus pneumoniae. In words: The compound has been evaluated for the antibacterial activity against Streptococcus pneumoniae EryRc 030PW23c strains.
In assay [7] the test system is Staphylococcus aureus. The experiment in a line: The compound has been evaluated for the antibacterial activity against Staphylococcus aureus EryRi 011GO25i strains.
For the next assay, the system named is Haemophilus influenzae. The experiment in a line: The compound has been evaluated for the antibacterial activity against Haemophilus influenzae 351HT3 (beta-lactamase +).
The test system of assay [8] is Mus musculus. In words: The compound has been evaluated for the in vivo efficacy that protect 50% of mice from lethal infection of Streptococcus Pneumoniae EryRi 030SJ5i strains after oral administration.
In assay [9] the test system is Mus musculus. In words: The compound has been evaluated for the in vivo efficacy that protect 50% of mice from lethal infection of Staphylococcus aureus EryS 011HT17 strains after oral administration.
For assay [10], the system named is Mus musculus. In words: The compound has been evaluated for the in vivo efficacy that protect 50%of mice from lethal infection of Haemophilus influenzae AmpR 351RD7 after oral administration.
The test system of assay [11] is Mus musculus. The experiment in a line: The compound has been evaluated for the in vivo efficacy that protect 50% of mice from lethal infection of Streptococcus Pneumonia EryS 032UC1 strain after oral administration.
The test system of assay [12] is Mus musculus. In words: The compound has been evaluated for the in vivo efficacy that protect 50% of mice from lethal infection of Streptococcus Pneumoniae EryRc 030MV2 strains after oral administration.
For assay [13], the system named is Mus musculus. In words: The compound has been evaluated for the in vivo efficacy that protect 50% of mice from lethal infection by Streptococcus Pneumoniae EryRi 030SJ5i strains after oral administration.
The subject of assay [14] is Mus musculus. In words: The compound has been evaluated for the in vivo efficacy that protect 50%of mice from lethal infection by Haemophilus influenzae AmpR 351RD7 after oral administration.
Assay [15] relates to Mus musculus. In words: The compound has been evaluated for the in vivo efficacy that protect 50% of mice from lethal infection by Staphylococcus aureus EryS 011HT17 strains after oral administration.
Assay [16] relates to Mus musculus. The experiment in a line: The compound has been evaluated for the in vivo efficacy that protect 50% of mice from lethal infection by Streptococcus Pneumoniae EryRc 030MV2 strains after oral administration.
The test system of assay [17] is Mus musculus. The experiment in a line: The compound has been evaluated for the in vivo efficacy that protect 50% of mice from lethal infection by Streptococcus Pneumonia EryS 032UC1 strain after oral administration.

Consider `CC[C@H]1OC(=O)/C(C)=C(/OCOCCN(C)C)[C@H](C)[C@@H](O[C@@H]2O[C@H](C)C[C@H](N(C)C)[C@H]2O)[C@](C)(OC)C[C@@H](C)C(=O)[C@H](C)[C@H]2N(CCCCn3cnc(-c4cccnc4)c3)C(=O)O[C@]12C`, for which the MIC with Streptococcus pneumoniae [1] is 10 µg/mL (≈ 11 µM); against Staphylococcus aureus [2] it was more than 40 µg/mL; in the assay on Streptococcus pneumoniae [3] it was 0.15 µg/mL (≈ 0.164 µM); against Streptococcus pyogenes, 0.3 µg/mL (≈ 0.329 µM); against Staphylococcus aureus [4], 2.5 µg/mL (≈ 2.74 µM); against Streptococcus pneumoniae [5] it was 5 µg/mL (≈ 5.48 µM). Also, the results for the MIC in the assay on Streptococcus pneumoniae [6], in the assay with Staphylococcus aureus [7] and against Haemophilus influenzae were 2.5 µg/mL (≈ 2.74 µM), 20 µg/mL (≈ 21.9 µM) and 20 µg/mL (≈ 21.9 µM), respectively.
Take `CC[C@H]1OC(=O)C(C)(C)C(=O)[C@H](C)[C@@H](O[C@@H]2O[C@H](C)C[C@H](N(C)C)[C@H]2O)[C@](C)(OC)C[C@@H](C)C(=O)[C@H](C)[C@H]2N(CCCCn3cnc(-c4cccnc4)c3)C(=O)O[C@]12C`: the MIC is 2.5 µg/mL (≈ 3.03 µM) against Streptococcus pneumoniae [1]; more than 40 µg/mL against Staphylococcus aureus [2]; 0.02 µg/mL (≈ 0.0242 µM) in the assay on Streptococcus pneumoniae [3]; 0.02 µg/mL (≈ 0.0242 µM) in the assay with Streptococcus pyogenes; 0.6 µg/mL (≈ 0.726 µM) with Staphylococcus aureus [4]; 0.6 µg/mL (≈ 0.726 µM) with Streptococcus pneumoniae [5]. The values for the MIC in the assay on Streptococcus pneumoniae [6], with Staphylococcus aureus [7] and against Haemophilus influenzae were 2.5 µg/mL (≈ 3.03 µM), 1.2 µg/mL (≈ 1.45 µM) and 2.5 µg/mL (≈ 3.03 µM), respectively.
Consider `CC[C@H]1OC(=O)[C@H](C)[C@@H](O[C@H]2C[C@@](C)(OC)[C@@H](O)[C@H](C)O2)[C@H](C)[C@@H](O[C@@H]2O[C@H](C)C[C@H](N(C)C)[C@H]2O)[C@](C)(O)C[C@@H](C)CN(C)[C@H](C)[C@@H](O)[C@]1(C)O` [AZITHROMYCIN], for which the MIC is more than 40 µg/mL against Streptococcus pneumoniae [1]; more than 40 µg/mL in the assay on Staphylococcus aureus [2]; 0.15 µg/mL (≈ 0.2 µM) in the assay on Streptococcus pneumoniae [3]; 0.6 µg/mL (≈ 0.801 µM) against Streptococcus pyogenes; 0.3 µg/mL (≈ 0.401 µM) in the assay on Staphylococcus aureus [4]; more than 40 µg/mL with Streptococcus pneumoniae [5]. Besides, the MIC was more than 40 µg/mL against Streptococcus pneumoniae [6], more than 40 µg/mL against Staphylococcus aureus [7] and 1.2 µg/mL (≈ 1.6 µM) against Haemophilus influenzae. Besides, the ED50 with Mus musculus [8] is more than 50 mg/kg; with Mus musculus [9] it was 72 mg/kg; with Mus musculus [10], 94 mg/kg; in the assay on Mus musculus [11], 4.5 mg/kg; in the assay on Mus musculus [12] it was more than 50 mg/kg.
Regarding `CC[C@H]1OC(=O)[C@H](C)[C@@H](O[C@H]2C[C@@](C)(OC)[C@@H](O)[C@H](C)O2)[C@H](C)[C@@H](O[C@@H]2O[C@H](C)C[C@H](N(C)C)[C@H]2O)[C@](C)(OC)C[C@@H](C)C(=O)[C@H](C)[C@@H](O)[C@]1(C)O` [CLARITHROMYCIN], the ED50 in the assay with Mus musculus [13] is more than 50 mg/kg; in the assay with Mus musculus [14], more than 150 mg/kg; in the assay with Mus musculus [15] it was 12 mg/kg; in the assay with Mus musculus [16] it was more than 50 mg/kg; with Mus musculus [17], 2 mg/kg. The MIC in the assay on Streptococcus pneumoniae [1] was more than 40 µg/mL; against Staphylococcus aureus [2] it was more than 40 µg/mL; in the assay on Streptococcus pneumoniae [3], 0.04 µg/mL (≈ 0.0535 µM); in the assay on Streptococcus pyogenes it was 0.008 µg/mL (≈ 0.0107 µM); against Staphylococcus aureus [4], 0.3 µg/mL (≈ 0.401 µM); with Streptococcus pneumoniae [5], more than 40 µg/mL. The MIC in the assay on Streptococcus pneumoniae [6] was more than 40 µg/mL; against Staphylococcus aureus [7] it was more than 40 µg/mL; with Haemophilus influenzae it was 5 µg/mL (≈ 6.68 µM).
As to `CC[C@H]1OC(=O)[C@@](C)(F)C(=O)[C@H](C)[C@@H](O[C@@H]2O[C@H](C)C[C@H](N(C)C)[C@H]2O)[C@](C)(OC)C[C@@H](C)C(=O)[C@H](C)[C@H]2N(CCCCn3cnc(-c4cccnc4)c3)C(=O)O[C@]12C`, the ED50 in the assay with Mus musculus [13] is 4.3 mg/kg; in the assay on Mus musculus [14], 56 mg/kg; with Mus musculus [15], 9 mg/kg; in the assay on Mus musculus [16], 2 mg/kg; in the assay on Mus musculus [17], 1.5 mg/kg. Moreover, the MIC was less than 0.02 µg/mL in the assay on Streptococcus pneumoniae [1]; more than 40 µg/mL against Staphylococcus aureus [2]; less than 0.02 µg/mL in the assay with Streptococcus pneumoniae [3]; less than 0.02 µg/mL against Streptococcus pyogenes; 0.02 µg/mL (≈ 0.0241 µM) against Staphylococcus aureus [4]; less than 0.02 µg/mL against Streptococcus pneumoniae [5]. Further, the MIC in the assay with Streptococcus pneumoniae [6] is less than 0.02 µg/mL; against Staphylococcus aureus [7] it was 0.08 µg/mL (≈ 0.0964 µM); in the assay with Haemophilus influenzae, 1.2 µg/mL (≈ 1.45 µM).
`CC[C@H]1OC(=O)C(C)(Cl)C(=O)[C@H](C)[C@@H](O[C@@H]2O[C@H](C)C[C@H](N(C)C)[C@H]2O)[C@](C)(OC)C[C@@H](C)C(=O)[C@H](C)[C@H]2N(CCCCn3cnc(-c4cccnc4)c3)C(=O)O[C@]12C` (stereo partly specified): the MIC with Streptococcus pneumoniae [1] is 5 µg/mL (≈ 5.91 µM); in the assay on Staphylococcus aureus [2], more than 40 µg/mL; in the assay on Streptococcus pneumoniae [3] it was 0.04 µg/mL (≈ 0.0473 µM); against Streptococcus pyogenes, 0.04 µg/mL (≈ 0.0473 µM); with Staphylococcus aureus [4] it was 0.6 µg/mL (≈ 0.709 µM); against Streptococcus pneumoniae [5], 0.6 µg/mL (≈ 0.709 µM). For the same compound, the MIC in the assay with Streptococcus pneumoniae [6] is 1.2 µg/mL (≈ 1.42 µM); with Staphylococcus aureus [7] it was more than 40 µg/mL; in the assay on Haemophilus influenzae it was 2.5 µg/mL (≈ 2.95 µM).
With `CC[C@H]1OC(=O)/C(C)=C\[C@H](C)[C@@H](O[C@@H]2O[C@H](C)C[C@H](N(C)C)[C@H]2O)[C@](C)(OC)C[C@@H](C)C(=O)[C@H](C)[C@H]2N(CCCCn3cnc(-c4cccnc4)c3)C(=O)O[C@]12C`, the MIC was 10 µg/mL (≈ 12.6 µM) with Streptococcus pneumoniae [1]; more than 40 µg/mL in the assay with Staphylococcus aureus [2]; 0.02 µg/mL (≈ 0.0251 µM) against Streptococcus pneumoniae [3]; 0.02 µg/mL (≈ 0.0251 µM) in the assay with Streptococcus pyogenes; 0.08 µg/mL (≈ 0.101 µM) in the assay with Staphylococcus aureus [4]; 2.5 µg/mL (≈ 3.14 µM) with Streptococcus pneumoniae [5]. Further, the MIC in the assay with Streptococcus pneumoniae [6] is 0.3 µg/mL (≈ 0.377 µM); with Staphylococcus aureus [7], 0.3 µg/mL (≈ 0.377 µM); against Haemophilus influenzae it was 2.5 µg/mL (≈ 3.14 µM).
Take `CC[C@H]1OC(=O)/C(C)=C(/OCOCCCc2ccccc2)[C@H](C)[C@@H](O[C@@H]2O[C@H](C)C[C@H](N(C)C)[C@H]2O)[C@](C)(OC)C[C@@H](C)C(=O)[C@H](C)[C@H]2N(CCCCn3cnc(-c4cccnc4)c3)C(=O)O[C@]12C`: the MIC was 20 µg/mL (≈ 20.8 µM) in the assay on Streptococcus pneumoniae [1]; more than 40 µg/mL against Staphylococcus aureus [2]; 0.8 µg/mL (≈ 0.833 µM) against Streptococcus pneumoniae [3]; 0.15 µg/mL (≈ 0.156 µM) against Streptococcus pyogenes; 5 µg/mL (≈ 5.21 µM) against Staphylococcus aureus [4]; 20 µg/mL (≈ 20.8 µM) against Streptococcus pneumoniae [5]. For the same compound, the MIC against Streptococcus pneumoniae [6] was 20 µg/mL (≈ 20.8 µM); with Staphylococcus aureus [7] it was more than 40 µg/mL; against Haemophilus influenzae it was more than 40 µg/mL.
Regarding `CC[C@H]1OC(=O)[C@H](C)C(=O)[C@H](C)[C@@H](O[C@@H]2O[C@H](C)C[C@H](N(C)C)[C@H]2O)[C@](C)(OC)C[C@@H](C)C(=O)[C@H](C)[C@H]2N(CCCCn3cnc(-c4cccnc4)c3)C(=O)O[C@]12C` [TELITHROMYCIN], the MIC with Streptococcus pneumoniae [1] was less than 0.02 µg/mL; in the assay with Staphylococcus aureus [2], more than 40 µg/mL; in the assay on Streptococcus pneumoniae [3], less than 0.02 µg/mL; against Streptococcus pyogenes it was less than 0.02 µg/mL; in the assay with Staphylococcus aureus [4], 0.04 µg/mL (≈ 0.0493 µM); against Streptococcus pneumoniae [5], less than 0.02 µg/mL. Besides, the MIC with Streptococcus pneumoniae [6] worked out at 0.04 µg/mL (≈ 0.0493 µM); against Staphylococcus aureus [7], 0.08 µg/mL (≈ 0.0985 µM); in the assay with Haemophilus influenzae, 1.2 µg/mL (≈ 1.48 µM).
